Laboratory results from PMC13586173, “Synthetic cannabinoid receptor agonists inhibit the cardiac voltage-gated potassium channel hERG” (Acta Pharmacologica Sinica, 2026).

How the values were obtained:
human CB1 receptor = target: T1, human CB1 receptor (Homo sapiens, UniProt P21554); assay: AequoScreen intracellular calcium release assay, CHO-K1 cells stably expressing CB1; assay type: cell-based; settings: n ≥ 3 (JWH-030 n = 2)
T1 construct: host or cells: CHO-K1 stably expressing CB1, apoaequorin and Gα16
T1 sequence (P21554 whole entry): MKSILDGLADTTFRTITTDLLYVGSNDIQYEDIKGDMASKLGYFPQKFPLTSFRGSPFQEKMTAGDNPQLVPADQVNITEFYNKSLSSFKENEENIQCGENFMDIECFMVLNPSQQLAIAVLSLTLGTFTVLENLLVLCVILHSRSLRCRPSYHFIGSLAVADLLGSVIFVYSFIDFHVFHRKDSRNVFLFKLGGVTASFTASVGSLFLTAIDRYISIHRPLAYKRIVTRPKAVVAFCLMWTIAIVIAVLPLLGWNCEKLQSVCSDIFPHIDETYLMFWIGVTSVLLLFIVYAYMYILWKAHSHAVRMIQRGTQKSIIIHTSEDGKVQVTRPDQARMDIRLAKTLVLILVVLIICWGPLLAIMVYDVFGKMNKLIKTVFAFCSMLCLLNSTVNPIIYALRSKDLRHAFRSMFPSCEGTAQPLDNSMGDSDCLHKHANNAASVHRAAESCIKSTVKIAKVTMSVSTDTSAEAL

hERG WT = target: T2, hERG WT (Homo sapiens, UniProt Q12809); assay: Manual patch-clamp (MPC) on hERG wild type; assay type: cell-based
T2 construct: expressed in transfected cells
T2 sequence (Q12809 whole entry): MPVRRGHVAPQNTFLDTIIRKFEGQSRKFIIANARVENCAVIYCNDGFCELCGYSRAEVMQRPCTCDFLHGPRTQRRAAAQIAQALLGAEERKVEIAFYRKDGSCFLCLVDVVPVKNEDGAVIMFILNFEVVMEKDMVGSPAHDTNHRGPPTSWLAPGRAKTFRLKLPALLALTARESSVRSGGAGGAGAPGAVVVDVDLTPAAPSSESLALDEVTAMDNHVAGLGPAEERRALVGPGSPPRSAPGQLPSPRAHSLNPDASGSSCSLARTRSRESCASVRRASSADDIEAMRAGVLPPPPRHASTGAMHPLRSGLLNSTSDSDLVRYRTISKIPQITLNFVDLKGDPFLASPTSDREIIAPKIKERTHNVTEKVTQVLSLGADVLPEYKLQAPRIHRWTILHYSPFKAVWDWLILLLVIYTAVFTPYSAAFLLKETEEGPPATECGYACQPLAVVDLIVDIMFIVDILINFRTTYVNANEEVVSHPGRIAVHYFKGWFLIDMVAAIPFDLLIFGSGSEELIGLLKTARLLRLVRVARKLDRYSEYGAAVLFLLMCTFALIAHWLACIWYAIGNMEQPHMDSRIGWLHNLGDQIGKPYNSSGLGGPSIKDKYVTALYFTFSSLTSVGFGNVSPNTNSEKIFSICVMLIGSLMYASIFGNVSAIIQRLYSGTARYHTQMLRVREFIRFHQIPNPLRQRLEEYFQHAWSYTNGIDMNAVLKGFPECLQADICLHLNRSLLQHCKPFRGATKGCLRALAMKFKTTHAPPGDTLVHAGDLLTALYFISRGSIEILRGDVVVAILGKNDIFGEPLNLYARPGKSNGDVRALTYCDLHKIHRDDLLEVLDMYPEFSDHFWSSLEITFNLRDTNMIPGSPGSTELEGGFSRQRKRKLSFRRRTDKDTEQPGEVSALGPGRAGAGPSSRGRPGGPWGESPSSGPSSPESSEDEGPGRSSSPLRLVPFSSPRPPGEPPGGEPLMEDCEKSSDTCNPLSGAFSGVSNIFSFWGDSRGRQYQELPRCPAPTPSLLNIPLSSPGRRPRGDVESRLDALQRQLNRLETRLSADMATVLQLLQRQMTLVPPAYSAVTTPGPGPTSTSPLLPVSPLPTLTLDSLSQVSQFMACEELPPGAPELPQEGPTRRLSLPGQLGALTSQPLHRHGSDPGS
Method: Manual patch-clamp (MPC) recordings were performed 24–48 h post-transfection. Patch pipettes were pulled from borosilicate glass and had resistances of 4–7 MΩ when filled with intracellular solution. Coverslips with CHO-K1 cells were placed in a recording chamber and continuously perfused at room temperature (22–24 °C) with extracellular solution using a gravity-fed perfusion system. The intracellular and extracellular solutions used for MPC were identical to those used for APC electrophysiology (see above). Extracellular solution without DMSO was used as a vehicle. Compounds were diluted from the stock solution as a series of dilutions in extracellular solution (i.e., no compensation for different concentrations of DMSO in recording solutions). Compounds were applied to the recorded cells by a pressurized, automated OctaFlow perfusion system (ALA Scientific Instruments).
Each voltage protocol was first run three times in extracellular solution, the 3rd serving as the baseline. Voltage protocols were repeated in the presence of cumulatively rising concentrations of test compound; each concentration was present for 30 s before the recording started. The signals were sampled at 5 kHz after low-pass filtering at 2 kHz.
For Gmax (rel.), N was set to –1. For ΔV50, N was set to 1.

hERG Y652A = target: T3, hERG Y652A (Homo sapiens, UniProt Q12809, Y652A); assay: Manual patch-clamp (MPC) on hERG Y652A, transiently transfected CHO-K1 cells; assay type: cell-based
T3 construct: expressed in transfected cells; host or cells: CHO-K1 CCL-61 (ATCC), transient, co-transfected with pcDNA3-GFP
T3 sequence (Q12809 whole entry Y652A): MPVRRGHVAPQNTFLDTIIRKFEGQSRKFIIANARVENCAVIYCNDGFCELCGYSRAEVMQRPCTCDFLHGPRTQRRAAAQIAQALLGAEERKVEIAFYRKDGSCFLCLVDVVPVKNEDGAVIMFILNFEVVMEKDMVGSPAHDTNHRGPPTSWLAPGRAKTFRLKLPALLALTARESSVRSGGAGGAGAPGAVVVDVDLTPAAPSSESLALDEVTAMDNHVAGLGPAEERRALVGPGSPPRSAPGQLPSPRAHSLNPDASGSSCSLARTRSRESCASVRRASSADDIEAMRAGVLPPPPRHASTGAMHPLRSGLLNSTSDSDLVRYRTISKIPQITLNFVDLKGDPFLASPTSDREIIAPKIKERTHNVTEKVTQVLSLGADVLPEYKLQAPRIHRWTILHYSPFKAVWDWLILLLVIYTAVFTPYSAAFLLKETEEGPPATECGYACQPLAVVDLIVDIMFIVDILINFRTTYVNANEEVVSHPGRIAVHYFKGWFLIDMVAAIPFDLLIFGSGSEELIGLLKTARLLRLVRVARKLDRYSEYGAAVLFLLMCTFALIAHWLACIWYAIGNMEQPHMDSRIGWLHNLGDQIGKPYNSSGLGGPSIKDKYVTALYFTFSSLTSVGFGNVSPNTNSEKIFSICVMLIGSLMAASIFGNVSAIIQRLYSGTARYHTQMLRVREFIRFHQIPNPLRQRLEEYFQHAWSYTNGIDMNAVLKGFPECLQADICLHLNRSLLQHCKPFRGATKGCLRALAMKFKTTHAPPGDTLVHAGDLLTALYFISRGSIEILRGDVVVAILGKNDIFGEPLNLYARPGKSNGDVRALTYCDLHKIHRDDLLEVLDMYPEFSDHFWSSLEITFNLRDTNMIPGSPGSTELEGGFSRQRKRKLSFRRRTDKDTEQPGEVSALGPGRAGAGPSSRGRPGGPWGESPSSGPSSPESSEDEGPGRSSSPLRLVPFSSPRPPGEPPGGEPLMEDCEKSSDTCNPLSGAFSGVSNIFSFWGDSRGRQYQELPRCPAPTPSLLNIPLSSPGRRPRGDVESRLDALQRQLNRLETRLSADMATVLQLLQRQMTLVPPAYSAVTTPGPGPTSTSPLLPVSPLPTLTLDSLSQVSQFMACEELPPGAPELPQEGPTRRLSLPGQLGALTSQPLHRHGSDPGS
Description: (§1) The hERG wild-type and Y652A constructs were kindly provided by Dr. Nicole Schmitt, and the eGFP-pcDNA3 construct was kindly provided by Dr. Antonios Pantazis. The S624A and S649A constructs were generated in-house from the wild-type template using the QuikChange II XL Site-Directed Mutagenesis Kit (Agilent Technologies, Santa Clara, CA, USA), in accordance with the manufacturer’s instructions. Mutagenesis primers were designed using the Agilent QuikChange Primer Design Program. Briefly, PCR amplification was performed according to the recommended cycling conditions, followed by DpnI digestion for 1 h to selectively degrade the parental (methylated) DNA template. The reaction products were then transformed into XL10-Gold ultracompetent cells. All constructs were verified by whole-plasmid sequencing (Eurofins Genomics, Germany) to confirm sequence accuracy.
(§2) Manual patch-clamp (MPC) recordings were performed 24–48 h post-transfection. Patch pipettes were pulled from borosilicate glass and had resistances of 4–7 MΩ when filled with intracellular solution. Coverslips with CHO-K1 cells were placed in a recording chamber and continuously perfused at room temperature (22–24 °C) with extracellular solution using a gravity-fed perfusion system. […] Compounds were applied to the recorded cells by a pressurized, automated OctaFlow perfusion system (ALA Scientific Instruments). […]

hERG (KV11.1) = hERG (KV11.1) (Homo sapiens, UniProt Q12809); assay: Automated planar patch-clamp (APC, QPatch II 48), voltage-ladder protocol, CHO cells stably expressing human hERG
Chain of hERG (KV11.1) (Q12809 whole entry): as the sequence (Q12809 whole entry) above

[1] = Literature concentrations detected in post-mortem cases; settings: conversion of cited ng/mL value
hERG S624A = target: T4, hERG S624A (Homo sapiens, UniProt Q12809, S624A); assay: Manual patch-clamp (MPC) on hERG S624A, transiently transfected CHO-K1 cells; assay type: cell-based
T4 construct: expressed in transfected cells; host or cells: CHO-K1 CCL-61 (ATCC), transient, co-transfected with pcDNA3-GFP
T4 sequence (Q12809 whole entry S624A): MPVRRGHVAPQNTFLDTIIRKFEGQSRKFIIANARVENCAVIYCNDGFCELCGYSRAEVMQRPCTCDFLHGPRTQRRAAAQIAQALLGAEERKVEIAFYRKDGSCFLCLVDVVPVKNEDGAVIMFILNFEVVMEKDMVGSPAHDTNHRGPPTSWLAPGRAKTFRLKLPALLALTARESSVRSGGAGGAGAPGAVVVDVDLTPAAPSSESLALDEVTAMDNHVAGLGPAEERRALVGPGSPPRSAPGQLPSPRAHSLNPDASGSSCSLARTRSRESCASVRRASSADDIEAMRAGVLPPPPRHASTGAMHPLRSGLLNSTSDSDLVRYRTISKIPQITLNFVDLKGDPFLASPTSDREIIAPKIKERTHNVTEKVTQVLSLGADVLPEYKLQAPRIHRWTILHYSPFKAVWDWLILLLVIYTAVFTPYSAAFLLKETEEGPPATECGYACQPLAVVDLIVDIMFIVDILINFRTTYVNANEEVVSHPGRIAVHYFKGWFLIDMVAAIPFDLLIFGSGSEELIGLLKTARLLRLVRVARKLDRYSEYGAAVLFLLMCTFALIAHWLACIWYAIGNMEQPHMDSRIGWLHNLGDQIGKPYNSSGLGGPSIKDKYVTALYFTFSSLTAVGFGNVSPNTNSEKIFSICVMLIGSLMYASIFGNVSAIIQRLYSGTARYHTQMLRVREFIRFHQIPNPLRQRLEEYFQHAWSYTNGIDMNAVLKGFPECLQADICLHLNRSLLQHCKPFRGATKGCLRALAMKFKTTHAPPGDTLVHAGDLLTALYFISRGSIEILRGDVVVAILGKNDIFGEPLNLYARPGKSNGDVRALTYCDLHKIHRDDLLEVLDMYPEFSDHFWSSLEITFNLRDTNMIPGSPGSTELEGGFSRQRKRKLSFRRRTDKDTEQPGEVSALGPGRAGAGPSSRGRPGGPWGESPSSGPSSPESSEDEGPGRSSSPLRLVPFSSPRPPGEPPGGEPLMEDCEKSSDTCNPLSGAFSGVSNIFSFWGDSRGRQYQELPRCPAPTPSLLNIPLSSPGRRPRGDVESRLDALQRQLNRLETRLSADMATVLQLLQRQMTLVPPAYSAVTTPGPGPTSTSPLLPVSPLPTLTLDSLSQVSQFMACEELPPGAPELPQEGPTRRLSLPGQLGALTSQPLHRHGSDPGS
Description: as §1, §2

COC(=O)C(NC(=O)c1nn(CCCCCF)c2ccccc12)C(C)(C)C (stereo not shown) [5F-MDMB-PINACA, methyl 2-{[1-(5-fluoropentyl)-1H-indazole-3-carbonyl]amino}-3,3-dimethylbutanoate]
EC50 (human CB1 receptor; CB1 receptor Potency EC50, normalized to median EC50 of JWH-018): 0.00899 µM | CB1 receptor Efficacy Emax (human CB1 receptor; normalized to maximum of JWH-018): 131 % JWH-018 | IC50 (hERG WT): 4 µM | IC50 (hERG Y652A): 7.8 µM | IC50 (hERG (KV11.1)): 9 µM | effect on Gmax of hERG (in words) (hERG (KV11.1); APC concentration-response, 1.11 to 30 µM): one of the most prominent in reducing Gmax of hERG | hERG channel Efficacy (max reduction in Gmax) Gmin (hERG (KV11.1); best fit, 1 = no reduction of Gmax, 0 = complete reduction, APC, 22 °C): 0.00 | concentration in post-mortem cases, blood or serum (converted) ([1]; blood or serum samples): ≈ 5.3 nM | concentration in post-mortem case, heart muscle (converted) ([1]; heart muscle): ≈ 4.8 nM | IC50 (hERG S624A): 9.6 µM
